Each structure is given as a SMILES string.

The test has as its target BTK kinase domain (Homo sapiens, UniProt Q06187). The test can be described thus: Time-dependent labeling of BTK, kinact and Ki of 1b. It counts as binding. More on the design: BTK kinase domain was expressed and purified as previously reported; made in house. Here is the method:
To assess the kinetic parameters of labeling, we performed a time-dependent incubation experiment of BTK (200 nM) with various concentrations of 1b (300–2000 nM, 20 mM Tris, pH 8, 14 °C; […]. page 9:
Figure S5. Determination of kinact and Ki parameters of CoLDR probe 1b. A. Depletion of unlabelled BTK (200 nM) […]
reaction was monitored by LC-MS. B. The rate constants as extrapolated from A. as a function of the concentration […]
(1 picture or pasted object on this page, not shown here)
Analysis was done using MaxQuant 1.6.3.4. The sequence of BTK was used for the analysis. The digestion enzyme was set to Trypsin with a maximum number of missed cleavages of 0.
Carbamidomethyl and the modification by the molecule were included as variable modifications on cysteine. The “Re-quantify” option was enabled. Contaminants were included. […] The triplicate measured for each compound (or for DMSO-treated protein) was analyzed separately.
Following MaxQuant analysis, only fully cleaved peptides were quantified and cysteine-containing peptides that were not modified by either iodoacetamide or compound were ignored.
The intensity for each peptide was calculated as the average of the three triplicates. […]
from the stock solution. […] The labeling percentage for a compound was determined as the labeling of a specific compound (alone or together with other compounds) divided by the overall detected protein species. […]

Sequence of BTK kinase domain (Q06187 402-655 limits assumed): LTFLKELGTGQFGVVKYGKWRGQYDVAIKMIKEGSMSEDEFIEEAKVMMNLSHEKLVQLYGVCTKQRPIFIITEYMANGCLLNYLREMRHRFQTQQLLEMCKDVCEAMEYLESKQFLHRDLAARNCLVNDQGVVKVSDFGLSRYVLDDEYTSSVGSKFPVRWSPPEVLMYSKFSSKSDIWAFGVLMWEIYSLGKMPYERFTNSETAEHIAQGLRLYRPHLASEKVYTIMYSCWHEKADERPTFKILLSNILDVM

The kinact is the rate constant of inactivation at saturating inhibitor. With `C#CCCNC(=O)C(=C)CN1CCC[C@@H](n2nc(-c3ccc(Oc4ccccc4)cc3)c3c(N)ncnc32)C1` [1b], the “reversible binding component weaker than ibrutinib” value (1b Ki compared with reported ibrutinib Ki) is “about 5 fold”. Moreover, the inactivation rate constant (kinact) (BTK 200 nM, 1b 300–2000 nM, 20 mM Tris, pH 8, 14 °C) was determined as 0.0278 s⁻¹.

For the origin of these results see publication PMC8662641, “Site-Specific Labeling of Endogenous Proteins Using CoLDR Chemistry” (Journal of the American Chemical Society, 2021).
